Laboratory results as given in ChEMBL document CHEMBL1671627, “Increasing trends in antimicrobial resistance among clinically important anaerobes and Bacteroides fragilis isolates causing nosocomial infections: emerging resistance to carbapenems” (2008).
≈ marks a conversion by molar mass, not a printed value.

Assays:
[1] = system: Fusobacterium mortiferum; assay: Antibacterial activity against Fusobacterium mortiferum by CLSI agar dilution method; type: functional
[2] = system: Clostridium tertium; assay: Antibacterial activity against beta-lactamase producing Clostridium tertium assessed as susceptible isolates by CLSI agar dilution method; type: functional
[3] = system: Clostridium paraputrificum; assay: Antibacterial activity against beta-lactamase producing Clostridium paraputrificum assessed as resistant isolates by CLSI agar dilution method; type: functional
[4] = system: Clostridium perfringens; assay: microbe, parasite or virus in culture; type: functional
[5] = system: Finegoldia magna; assay: Antibacterial activity against beta-lactamase producing Finegoldia magna by CLSI agar dilution method; type: functional
[6] = system: Phocaeicola vulgatus; assay: Antibacterial activity against beta-lactamase producing Bacteroides vulgatus assessed as resistant isolates by CLSI agar dilution method; type: functional
[7] = system: Fusobacterium nucleatum; assay: Antibacterial activity against Fusobacterium nucleatum assessed as resistant isolates by CLSI agar dilution method; type: functional
[8] = system: Clostridium septicum; assay: Antibacterial activity against beta-lactamase producing Clostridium septicum by CLSI agar dilution method; type: functional
[9] = system: Bacteroides fragilis; assay: Antibacterial activity against Bacteroides fragilis assessed as susceptible isolates by CLSI agar dilution method; type: functional
[10] = system: Fusobacterium varium; assay: Antibacterial activity against Fusobacterium varium assessed as susceptible isolates by CLSI agar dilution method; type: functional
[11] = system: Clostridium tertium; assay: Antibacterial activity against beta-lactamase producing Clostridium tertium by CLSI agar dilution method; type: functional
[12] = system: Peptostreptococcus anaerobius; assay: Antibacterial activity against beta-lactamase producing Peptostreptococcus anaerobius assessed as resistant isolates by CLSI agar dilution method; type: functional
[13] = system: Prevotella melaninogenica; assay: Antibacterial activity against Prevotella melaninogenica assessed as resistant isolates by CLSI agar dilution method; type: functional
[14] = system: Bacteroides fragilis; assay: Antibacterial activity against Bacteroides fragilis by CLSI agar dilution method; type: functional
[15] = system: Parvimonas micra; assay: Antibacterial activity against beta-lactamase producing Micromonas micros assessed as resistant isolates by CLSI agar dilution method; type: functional
[16] = system: Prevotella intermedia; assay: Antibacterial activity against Prevotella intermedia by CLSI agar dilution method; type: functional
[17] = system: Prevotella melaninogenica; assay: Antibacterial activity against Prevotella melaninogenica by CLSI agar dilution method; type: functional
[18] = system: Veillonella parvula; assay: Antibacterial activity against Veillonella parvula by CLSI agar dilution method; type: functional
[19] = system: Prevotella buccae; assay: Antibacterial activity against Prevotella buccae by CLSI agar dilution method; type: functional; details: Segatella buccae
[20] = system: Bacteroides uniformis; assay: Antibacterial activity against beta-lactamase producing Bacteroides uniformis assessed as resistant isolates by CLSI agar dilution method; type: functional
[21] = system: Bacteroides caccae; assay: Antibacterial activity against beta-lactamase producing Bacteroides caccae assessed as resistant isolates by CLSI agar dilution method; type: functional
[22] = system: Bacteroides uniformis; assay: Antibacterial activity against beta-lactamase producing Bacteroides uniformis by CLSI agar dilution method; type: functional
[23] = system: Prevotella intermedia; assay: Antibacterial activity against Prevotella intermedia assessed as susceptible isolates by CLSI agar dilution method; type: functional
[24] = system: Prevotella bivia; assay: Antibacterial activity against Prevotella bivia assessed as resistant isolates by CLSI agar dilution method; type: functional
[25] = system: Clostridium tertium; assay: Antibacterial activity against beta-lactamase producing Clostridium tertium assessed as resistant isolates by CLSI agar dilution method; type: functional
[26] = system: Clostridium paraputrificum; assay: Antibacterial activity against beta-lactamase producing Clostridium paraputrificum by CLSI agar dilution method; type: functional
[27] = system: Prevotella intermedia; assay: Antibacterial activity against Prevotella intermedia assessed as resistant isolates by CLSI agar dilution method; type: functional
[28] = system: Bacteroides fragilis; assay: Antibacterial activity against Bacteroides fragilis assessed as resistant isolates by CLSI agar dilution method; type: functional
[29] = system: Fusobacterium varium; assay: Antibacterial activity against Fusobacterium varium assessed as resistant isolates by CLSI agar dilution method; type: functional
[30] = system: Fusobacterium necrophorum; assay: Antibacterial activity against Fusobacterium necrophorum by CLSI agar dilution method; type: functional
[31] = system: Bacteroides thetaiotaomicron; assay: Antibacterial activity against beta-lactamase producing Bacteroides thetaiotaomicron by CLSI agar dilution method; type: functional
[32] = system: Peptoniphilus asaccharolyticus; assay: Antibacterial activity against beta-lactamase producing Peptoniphilus asaccharolyticus assessed as resistant isolates by CLSI agar dilution method; type: functional
[33] = system: Bacteroides thetaiotaomicron; assay: Antibacterial activity against beta-lactamase producing Bacteroides thetaiotaomicron assessed as susceptible isolates by CLSI agar dilution method; type: functional
[34] = system: Prevotella bivia; assay: Antibacterial activity against Prevotella bivia assessed as susceptible isolates by CLSI agar dilution method; type: functional
[35] = system: Prevotella melaninogenica; assay: Antibacterial activity against Prevotella melaninogenica assessed as susceptible isolates by CLSI agar dilution method; type: functional
[36] = system: Prevotella buccae; assay: Antibacterial activity against Prevotella buccae assessed as susceptible isolates by CLSI agar dilution method; type: functional, Segatella buccae
[37] = system: Fusobacterium nucleatum; assay: Antibacterial activity against Fusobacterium nucleatum by CLSI agar dilution method; type: functional
[38] = system: Fusobacterium necrophorum; assay: Antibacterial activity against Fusobacterium necrophorum assessed as resistant isolates by CLSI agar dilution method; type: functional
[39] = system: Clostridium septicum; assay: Antibacterial activity against beta-lactamase producing Clostridium septicum assessed as susceptible isolates by CLSI agar dilution method; type: functional
[40] = system: Bacteroides caccae; assay: Antibacterial activity against beta-lactamase producing Bacteroides caccae assessed as susceptible isolates by CLSI agar dilution method; type: functional
[41] = system: Phocaeicola vulgatus; assay: Antibacterial activity against beta-lactamase producing Bacteroides vulgatus assessed as susceptible isolates by CLSI agar dilution method; type: functional
[42] = system: Bacteroides caccae; assay: Antibacterial activity against beta-lactamase producing Bacteroides caccae by CLSI agar dilution method; type: functional
[43] = system: Fusobacterium nucleatum; assay: Antibacterial activity against Fusobacterium nucleatum assessed as susceptible isolates by CLSI agar dilution method; type: functional
[44] = system: Phocaeicola vulgatus; assay: Antibacterial activity against beta-lactamase producing Bacteroides vulgatus by CLSI agar dilution method; type: functional
[45] = system: Prevotella buccae; assay: Antibacterial activity against Prevotella buccae assessed as resistant isolates by CLSI agar dilution method; type: functional, Segatella buccae
[46] = system: Peptostreptococcus anaerobius; assay: Antibacterial activity against beta-lactamase producing Peptostreptococcus anaerobius by CLSI agar dilution method; type: functional
[47] = system: Fusobacterium mortiferum; assay: Antibacterial activity against Fusobacterium mortiferum assessed as resistant isolates by CLSI agar dilution method; type: functional
[48] = system: Parvimonas micra; assay: Antibacterial activity against beta-lactamase producing Micromonas micros assessed as susceptible isolates by CLSI agar dilution method; type: functional
[49] = system: Finegoldia magna; assay: Antibacterial activity against beta-lactamase producing Finegoldia magna assessed as susceptible isolates by CLSI agar dilution method; type: functional
[50] = system: Clostridium paraputrificum; assay: Antibacterial activity against beta-lactamase producing Clostridium paraputrificum assessed as susceptible isolates by CLSI agar dilution method; type: functional
[51] = system: Fusobacterium mortiferum; assay: Antibacterial activity against Fusobacterium mortiferum assessed as susceptible isolates by CLSI agar dilution method; type: functional
[52] = system: Prevotella bivia; assay: Antibacterial activity against Prevotella bivia by CLSI agar dilution method; type: functional
[53] = system: Bacteroides uniformis; assay: Antibacterial activity against beta-lactamase producing Bacteroides uniformis assessed as susceptible isolates by CLSI agar dilution method; type: functional
[54] = system: Fusobacterium necrophorum; assay: Antibacterial activity against Fusobacterium necrophorum assessed as susceptible isolates by CLSI agar dilution method; type: functional
[55] = system: Clostridium septicum; assay: Antibacterial activity against beta-lactamase producing Clostridium septicum assessed as resistant isolates by CLSI agar dilution method; type: functional
[56] = system: Peptoniphilus asaccharolyticus; assay: Antibacterial activity against beta-lactamase producing Peptoniphilus asaccharolyticus by CLSI agar dilution method; type: functional
[57] = system: Peptostreptococcus anaerobius; assay: Antibacterial activity against beta-lactamase producing Peptostreptococcus anaerobius assessed as susceptible isolates by CLSI agar dilution method; type: functional
[58] = system: Parvimonas micra; assay: Antibacterial activity against beta-lactamase producing Micromonas micros by CLSI agar dilution method; type: functional
[59] = system: Peptoniphilus asaccharolyticus; assay: Antibacterial activity against beta-lactamase producing Peptoniphilus asaccharolyticus assessed as susceptible isolates by CLSI agar dilution method; type: functional
[60] = system: Finegoldia magna; assay: Antibacterial activity against beta-lactamase producing Finegoldia magna assessed as resistant isolates by CLSI agar dilution method; type: functional
[61] = system: Fusobacterium varium; assay: Antibacterial activity against Fusobacterium varium by CLSI agar dilution method; type: functional

For `CCC[C@@H]1C[C@@H](C(=O)N[C@@H]([C@H]2O[C@H](SC)[C@H](O)[C@@H](O)[C@H]2O)[C@H](C)Cl)N(C)C1` [CLINDAMYCIN], the MIC50 [1] was 0.25 µg/mL (≈ 0.588 µM), the MIC90 [1] was 4 µg/mL (≈ 9.41 µM) and the Activity [2] was 75%. It also gave an Activity [3] of 14%, an MIC50 [4] of 1 µg/mL (≈ 2.35 µM) and an MIC90 [4] of 8 µg/mL (≈ 18.8 µM). It also gave an MIC50 [5] of 0.12 µg/mL (≈ 0.282 µM), an MIC90 [5] of 4 µg/mL (≈ 9.41 µM) and an Activity [6] of 39%. It also gave an Activity [7] of 7%, an MIC50 [8] of 1 µg/mL (≈ 2.35 µM) and an MIC90 [8] of 8 µg/mL (≈ 18.8 µM). It also gave an Activity [9] of 63%, an Activity [10] of 85% and an MIC50 [11] of 1 µg/mL (≈ 2.35 µM). The MIC90 [11] was 8 µg/mL (≈ 18.8 µM), the Activity [12] was 9% and the Activity [13] was 31%. For the same compound, the MIC50 [14] was 1 µg/mL (≈ 2.35 µM), the MIC90 [14] was > 128 µg/mL and the Activity [15] was 9%. The MIC50 [16] was 0.12 µg/mL (≈ 0.282 µM), the MIC90 [16] was > 128 µg/mL and the MIC50 [17] was 0.12 µg/mL (≈ 0.282 µM). For the same compound, the MIC90 [17] was > 128 µg/mL, the MIC [18] was 0.06 µg/mL (≈ 0.141 µM) and the MIC50 [19] was 0.12 µg/mL (≈ 0.282 µM). For the same compound, the MIC90 [19] was > 128 µg/mL, the Activity [20] was 39% and the Activity [21] was 39%. For the same compound, the MIC50 [22] was 2 µg/mL (≈ 4.71 µM), the MIC90 [22] was > 128 µg/mL and the Activity [23] was 69%. The Activity [24] was 31%, the Activity [25] was 14% and the MIC50 [26] was 1 µg/mL (≈ 2.35 µM). The MIC90 [26] was 8 µg/mL (≈ 18.8 µM), the Activity [27] was 31% and the Activity [28] was 37%. The Activity [29] was 7%, the MIC50 [30] was 0.25 µg/mL (≈ 0.588 µM) and the MIC90 [30] was 4 µg/mL (≈ 9.41 µM). For the same compound, the MIC50 [31] was 4 µg/mL (≈ 9.41 µM), the MIC90 [31] was > 128 µg/mL and the Activity [32] was 9%. For the same compound, the Activity [33] was 43%, the Activity [34] was 69% and the Activity [35] was 69%. It also gave an Activity [36] of 69%, an MIC50 [37] of 0.25 µg/mL (≈ 0.588 µM) and an MIC90 [37] of 4 µg/mL (≈ 9.41 µM). The Activity [38] was 7%, the Activity [39] was 75% and the Activity [40] was 57%. For the same compound, the Activity [41] was 57%, the MIC50 [42] was 2 µg/mL (≈ 4.71 µM) and the MIC90 [42] was > 128 µg/mL. The Activity [43] was 85%, the MIC50 [44] was 2 µg/mL (≈ 4.71 µM) and the MIC90 [44] was > 128 µg/mL. The Activity [45] was 31%, the MIC50 [46] was 0.12 µg/mL (≈ 0.282 µM) and the MIC90 [46] was 4 µg/mL (≈ 9.41 µM). It also gave an Activity [47] of 7%, an Activity [48] of 88% and an Activity [49] of 88%. It also gave an Activity [50] of 75%, an Activity [51] of 85% and an MIC50 [52] of 0.12 µg/mL (≈ 0.282 µM). For the same compound, the MIC90 [52] was > 128 µg/mL, the Activity [53] was 57% and the Activity [54] was 85%. For the same compound, the Activity [55] was 14%, the MIC50 [56] was 0.12 µg/mL (≈ 0.282 µM) and the MIC90 [56] was 4 µg/mL (≈ 9.41 µM). It also gave an Activity [57] of 88%, an MIC50 [58] of 0.12 µg/mL (≈ 0.282 µM) and an MIC90 [58] of 4 µg/mL (≈ 9.41 µM). For the same compound, the Activity [59] was 88%, the Activity [60] was 9% and the MIC50 [61] was 0.25 µg/mL (≈ 0.588 µM). For the same compound, the MIC90 [61] was 4 µg/mL (≈ 9.41 µM).
